Results published in US10710978B2, “STK4 inhibitors for treatment of hematologic malignancies” (Dana-Farber Cancer Institute, Inc., priority 2015, dated 2020).
Where two headings read alike, the source gives them in different places.

Columns and labels:
Test in all cases: KiNativ assay
Format in all cases: binding
AurA, AurB, AurC = details: H929 live cell; for % inhibition: 10 μM, range class
Experimental: (§1) Biochemical IC50s of the compounds of the present disclosure against various kinases were measured in a KiNativ assay. Compounds were screened in duplicate at 10 μM in H929 live cell. IC50 was measured via Mass spectroscopy (MS).

BRAF = BRAF (Homo sapiens (Human), UniProt P15056); details: H929 live cell
Experimental: as §1

CDK11, CDK8 = details: H929 live cell; for % inhibition: 10 μM, range class
Experimental: as §1

CHK1 = CHK1 (Homo sapiens (Human), UniProt O14757); details: H929 live cell
Experimental: as §1

[1] = test system: CaMK2a, CaMK2b, CaMK2d, CaMK2g; details: H929 live cell; for % inhibition: 10 μM, range class
Experimental: as §1

Erk1 = Erk1 (Homo sapiens (Human), UniProt P27361); details: H929 live cell
Experimental: as §1

FER = FER (Homo sapiens (Human), UniProt P16591); details: H929 live cell
Experimental: as §1

HPK1 = HPK1 (Homo sapiens (Human), UniProt Q92918); details: H929 live cell
Experimental: as §1

IKKe, TBK1 = details: H929 live cell; for % inhibition: 10 μM, range class
Experimental: as §1

IRAK1 = IRAK1 (Homo sapiens (Human), UniProt P51617); details: H929 live cell
Experimental: as §1

MAP2K1 = MAP2K1 (Homo sapiens (Human), UniProt Q02750); details: H929 live cell
Experimental: as §1

MAP2K1, MAP2K2 = details: 10 μM, H929 live cell; range class
Experimental: as §1

MAP2K6 = MAP2K6 (Homo sapiens (Human), UniProt P52564); details: H929 live cell
Experimental: as §1

MAP3K2 = MAP3K2 (Homo sapiens (Human), UniProt Q9Y2U5); details: H929 live cell
Experimental: as §1

MARK1, MARK2 = details: H929 live cell; for % inhibition: 10 μM, range class
Experimental: as §1

MARK2 = MARK2 (Homo sapiens (Human), UniProt Q7KZI7); details: H929 live cell
Experimental: as §1

MARK4 = MARK4 (Homo sapiens (Human), UniProt Q96L34); details: H929 live cell
Experimental: as §1

MASTL = MASTL (Homo sapiens (Human), UniProt Q96GX5); details: H929 live cell
Experimental: as §1

MST4 = details: H929 live cell; for % inhibition: 10 μM, range class
Experimental: as §1

NDR1 = NDR1 (Homo sapiens (Human), UniProt Q15208); details: H929 live cell
Experimental: as §1

NEK3 = NEK3 (Homo sapiens (Human), UniProt P51956); details: H929 live cell
Experimental: as §1

NuaK2 = NuaK2 (Homo sapiens (Human), UniProt Q9H093); details: H929 live cell
Experimental: as §1

PAN3 = PAN3 (Homo sapiens (Human), UniProt Q58A45); details: H929 live cell
Experimental: as §1

PEK = PEK (Homo sapiens (Human), UniProt Q9NZJ5); details: H929 live cell
Experimental: as §1

PHKg2 = PHKg2 (Homo sapiens (Human), UniProt P15735); details: H929 live cell
Experimental: as §1

PI4KB = PI4KB (Homo sapiens (Human), UniProt Q9UBF8); details: H929 live cell
Experimental: as §1

PIP4K2A = PIP4K2A (Homo sapiens (Human), UniProt P48426); details: H929 live cell
Experimental: as §1

PITSLRE = details: H929 live cell; for % inhibition: 10 μM, range class
Experimental: as §1

PKD3 = PKD3 (Homo sapiens (Human), UniProt O94806); details: H929 live cell
Experimental: as §1

RSKL1 = RSKL1 (Homo sapiens (Human), UniProt Q96S38); details: H929 live cell
Experimental: as §1

SRPK2 = SRPK2 (Homo sapiens (Human), UniProt P78362); details: H929 live cell
Experimental: as §1

TLK1 = TLK1 (Homo sapiens (Human), UniProt Q9UKI8); details: H929 live cell
Experimental: as §1

ZAK = ZAK (Homo sapiens (Human), UniProt Q9NYL2); details: H929 live cell
Experimental: as §1

eEF2K = eEF2K (Homo sapiens (Human), UniProt O00418); details: H929 live cell
Experimental: as §1

[2] = range class, read-out: % inhibition

Sequence of eEF2K (O00418 whole entry): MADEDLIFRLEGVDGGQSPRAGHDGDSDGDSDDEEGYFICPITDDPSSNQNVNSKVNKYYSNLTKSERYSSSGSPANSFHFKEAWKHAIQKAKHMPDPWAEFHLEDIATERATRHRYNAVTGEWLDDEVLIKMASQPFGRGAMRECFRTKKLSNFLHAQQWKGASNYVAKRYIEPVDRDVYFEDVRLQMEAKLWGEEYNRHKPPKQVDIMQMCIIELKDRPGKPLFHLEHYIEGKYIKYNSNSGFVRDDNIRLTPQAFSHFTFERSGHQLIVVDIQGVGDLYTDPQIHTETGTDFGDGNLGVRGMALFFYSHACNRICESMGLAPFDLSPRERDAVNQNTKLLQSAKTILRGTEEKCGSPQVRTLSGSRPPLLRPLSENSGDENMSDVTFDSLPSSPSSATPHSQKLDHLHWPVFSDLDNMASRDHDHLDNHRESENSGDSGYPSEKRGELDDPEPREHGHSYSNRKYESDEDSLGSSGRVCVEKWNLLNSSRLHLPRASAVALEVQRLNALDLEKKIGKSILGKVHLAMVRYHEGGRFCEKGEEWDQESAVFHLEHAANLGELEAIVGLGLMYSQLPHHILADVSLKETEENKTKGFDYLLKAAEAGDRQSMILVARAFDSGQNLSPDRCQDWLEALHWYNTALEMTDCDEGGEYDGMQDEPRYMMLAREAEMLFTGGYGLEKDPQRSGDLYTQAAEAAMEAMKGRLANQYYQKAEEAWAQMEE
Sequence of Erk1 (P27361 whole entry): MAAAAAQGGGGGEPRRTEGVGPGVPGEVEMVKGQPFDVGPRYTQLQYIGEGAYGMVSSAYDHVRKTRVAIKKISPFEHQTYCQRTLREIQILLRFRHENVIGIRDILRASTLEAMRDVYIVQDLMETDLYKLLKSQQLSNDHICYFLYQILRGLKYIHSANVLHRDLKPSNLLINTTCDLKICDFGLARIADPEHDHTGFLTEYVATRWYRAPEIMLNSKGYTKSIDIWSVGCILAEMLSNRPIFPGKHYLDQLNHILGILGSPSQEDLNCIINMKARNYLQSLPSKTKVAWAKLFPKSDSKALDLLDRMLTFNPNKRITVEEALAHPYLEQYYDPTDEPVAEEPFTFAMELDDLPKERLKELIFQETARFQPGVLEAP
Sequence of MAP2K1 (Q02750 whole entry): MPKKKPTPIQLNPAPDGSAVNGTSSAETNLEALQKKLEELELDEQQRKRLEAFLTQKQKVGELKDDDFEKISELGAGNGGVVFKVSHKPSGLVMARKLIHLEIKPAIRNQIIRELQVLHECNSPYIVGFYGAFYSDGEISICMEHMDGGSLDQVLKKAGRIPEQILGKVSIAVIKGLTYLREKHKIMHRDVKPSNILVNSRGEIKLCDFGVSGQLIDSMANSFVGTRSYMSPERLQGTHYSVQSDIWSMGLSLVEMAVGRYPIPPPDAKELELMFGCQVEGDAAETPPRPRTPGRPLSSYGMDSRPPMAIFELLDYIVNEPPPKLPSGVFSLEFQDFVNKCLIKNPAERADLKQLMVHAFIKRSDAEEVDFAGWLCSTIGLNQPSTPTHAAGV
Sequence of PI4KB (Q9UBF8 whole entry): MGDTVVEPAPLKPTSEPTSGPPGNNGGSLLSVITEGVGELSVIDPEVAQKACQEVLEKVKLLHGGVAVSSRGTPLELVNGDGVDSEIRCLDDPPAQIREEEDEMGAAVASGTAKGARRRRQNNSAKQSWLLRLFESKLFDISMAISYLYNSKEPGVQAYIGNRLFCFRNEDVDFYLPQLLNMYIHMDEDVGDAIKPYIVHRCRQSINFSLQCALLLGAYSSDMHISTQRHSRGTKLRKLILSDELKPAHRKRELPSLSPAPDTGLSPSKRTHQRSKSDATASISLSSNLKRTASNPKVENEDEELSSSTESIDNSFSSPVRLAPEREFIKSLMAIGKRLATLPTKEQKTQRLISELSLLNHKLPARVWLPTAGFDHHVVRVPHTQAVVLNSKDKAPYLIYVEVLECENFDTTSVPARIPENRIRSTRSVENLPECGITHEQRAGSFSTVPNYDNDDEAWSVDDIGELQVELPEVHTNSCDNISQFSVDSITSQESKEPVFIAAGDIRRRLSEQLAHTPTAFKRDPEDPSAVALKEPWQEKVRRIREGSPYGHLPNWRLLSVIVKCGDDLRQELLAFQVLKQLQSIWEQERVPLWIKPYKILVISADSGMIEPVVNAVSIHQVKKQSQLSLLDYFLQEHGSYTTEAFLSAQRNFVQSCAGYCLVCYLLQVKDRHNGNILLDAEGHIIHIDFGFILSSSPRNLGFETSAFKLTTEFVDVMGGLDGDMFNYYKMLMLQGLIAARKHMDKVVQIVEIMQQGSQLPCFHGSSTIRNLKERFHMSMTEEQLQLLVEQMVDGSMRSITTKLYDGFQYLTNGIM
Sequence of PEK (Q9NZJ5 30-1116): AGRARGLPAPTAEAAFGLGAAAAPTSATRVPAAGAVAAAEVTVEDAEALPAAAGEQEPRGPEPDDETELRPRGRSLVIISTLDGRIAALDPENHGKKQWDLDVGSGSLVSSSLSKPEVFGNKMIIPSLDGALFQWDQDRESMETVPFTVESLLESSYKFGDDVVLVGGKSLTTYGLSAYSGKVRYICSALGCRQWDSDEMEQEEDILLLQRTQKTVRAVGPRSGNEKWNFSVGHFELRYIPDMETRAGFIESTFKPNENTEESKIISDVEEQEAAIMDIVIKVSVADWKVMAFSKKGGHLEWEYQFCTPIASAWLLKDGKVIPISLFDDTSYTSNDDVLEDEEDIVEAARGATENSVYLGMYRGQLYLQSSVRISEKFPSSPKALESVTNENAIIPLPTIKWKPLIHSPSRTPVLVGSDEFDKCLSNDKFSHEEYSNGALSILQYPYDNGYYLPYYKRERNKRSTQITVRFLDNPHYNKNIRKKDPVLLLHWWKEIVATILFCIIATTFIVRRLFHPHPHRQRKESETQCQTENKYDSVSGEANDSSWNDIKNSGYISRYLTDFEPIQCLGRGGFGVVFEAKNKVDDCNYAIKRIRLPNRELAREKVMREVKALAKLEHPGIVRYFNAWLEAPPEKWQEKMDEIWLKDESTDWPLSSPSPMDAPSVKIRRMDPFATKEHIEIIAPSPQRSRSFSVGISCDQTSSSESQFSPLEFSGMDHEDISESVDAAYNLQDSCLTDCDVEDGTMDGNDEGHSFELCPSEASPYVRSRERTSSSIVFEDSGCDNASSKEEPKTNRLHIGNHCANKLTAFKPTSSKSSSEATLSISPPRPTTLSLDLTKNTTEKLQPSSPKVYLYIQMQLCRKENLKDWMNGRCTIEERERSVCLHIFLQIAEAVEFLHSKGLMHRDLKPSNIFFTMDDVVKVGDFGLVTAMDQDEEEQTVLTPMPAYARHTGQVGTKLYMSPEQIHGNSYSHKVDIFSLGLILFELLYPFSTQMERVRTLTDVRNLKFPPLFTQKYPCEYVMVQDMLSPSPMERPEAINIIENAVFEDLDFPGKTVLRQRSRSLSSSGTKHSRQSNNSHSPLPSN
Sequence of MARK4 (Q96L34 whole entry): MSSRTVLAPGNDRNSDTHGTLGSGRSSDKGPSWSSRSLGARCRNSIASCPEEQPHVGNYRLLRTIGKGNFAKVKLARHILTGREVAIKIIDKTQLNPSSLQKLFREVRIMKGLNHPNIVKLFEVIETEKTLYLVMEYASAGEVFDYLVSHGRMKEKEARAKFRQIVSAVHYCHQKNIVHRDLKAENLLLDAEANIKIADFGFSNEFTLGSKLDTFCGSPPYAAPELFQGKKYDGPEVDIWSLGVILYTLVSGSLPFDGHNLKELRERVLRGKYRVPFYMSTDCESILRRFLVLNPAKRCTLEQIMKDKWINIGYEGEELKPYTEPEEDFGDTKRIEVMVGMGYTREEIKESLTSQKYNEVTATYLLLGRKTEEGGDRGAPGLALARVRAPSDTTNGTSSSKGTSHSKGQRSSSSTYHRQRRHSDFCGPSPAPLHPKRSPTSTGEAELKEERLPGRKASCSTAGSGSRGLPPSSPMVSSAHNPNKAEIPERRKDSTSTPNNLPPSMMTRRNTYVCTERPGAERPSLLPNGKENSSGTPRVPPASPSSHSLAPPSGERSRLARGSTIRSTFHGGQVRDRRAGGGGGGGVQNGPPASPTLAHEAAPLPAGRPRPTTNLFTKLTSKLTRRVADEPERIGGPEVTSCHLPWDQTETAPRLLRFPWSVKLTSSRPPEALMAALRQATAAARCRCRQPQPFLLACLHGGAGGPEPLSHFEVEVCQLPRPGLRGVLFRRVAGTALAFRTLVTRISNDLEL
Sequence of MASTL (Q96GX5 whole entry): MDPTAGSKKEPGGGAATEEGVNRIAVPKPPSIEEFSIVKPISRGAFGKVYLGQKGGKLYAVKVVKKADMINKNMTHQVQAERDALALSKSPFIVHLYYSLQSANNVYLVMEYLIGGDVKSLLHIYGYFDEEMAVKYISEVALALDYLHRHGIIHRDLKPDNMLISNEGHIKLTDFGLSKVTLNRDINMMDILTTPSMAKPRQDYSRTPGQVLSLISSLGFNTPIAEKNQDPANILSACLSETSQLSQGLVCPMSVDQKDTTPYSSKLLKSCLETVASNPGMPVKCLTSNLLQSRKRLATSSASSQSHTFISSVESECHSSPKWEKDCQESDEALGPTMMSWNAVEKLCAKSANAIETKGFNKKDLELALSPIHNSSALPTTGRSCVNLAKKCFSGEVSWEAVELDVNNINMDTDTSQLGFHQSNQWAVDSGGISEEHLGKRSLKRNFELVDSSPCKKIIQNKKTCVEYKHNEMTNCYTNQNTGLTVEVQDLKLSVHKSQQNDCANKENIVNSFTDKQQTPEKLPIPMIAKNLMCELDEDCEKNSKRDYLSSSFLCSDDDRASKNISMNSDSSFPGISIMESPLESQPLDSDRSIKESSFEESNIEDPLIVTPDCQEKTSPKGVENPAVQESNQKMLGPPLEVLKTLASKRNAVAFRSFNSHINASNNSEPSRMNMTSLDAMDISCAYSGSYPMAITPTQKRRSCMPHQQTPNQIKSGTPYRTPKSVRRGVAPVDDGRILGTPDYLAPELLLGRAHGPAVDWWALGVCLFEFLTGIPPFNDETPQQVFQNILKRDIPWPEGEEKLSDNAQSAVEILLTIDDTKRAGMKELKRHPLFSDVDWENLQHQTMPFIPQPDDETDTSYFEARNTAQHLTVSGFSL

COc1cc(NS(=O)(=O)C2CC2)ccc1-c1cnc(N)c(-c2ccc3c(c2)CCNC3=O)c1 [Compound I-50, N-(4-(6-amino-5-(1-oxo-1,2,3,4-tetrahydroisoquinolin-6-yl)pyridin-3-yl)-3-methoxyphenyl) cyclopropanesulfonamide]
% inhibition (AurA, AurB, AurC): 0.0%
inhibition (10 μM) (AurA, AurB, AurC): 17.8%
inhibition at 10 µM (BRAF; [2]): 0%
inhibition at 10 µM (BRAF; read-out: inhibition (10 μM)): -35.8%
% inhibition (CDK11, CDK8): 35-40%
inhibition (10 μM) (CDK11, CDK8): 38.1%
inhibition at 10 µM (CHK1; [2]): 0%
inhibition at 10 µM (CHK1; read-out: inhibition (10 μM)): -9.6%
% inhibition [1]: 0.0%
inhibition (10 μM) [1]: 26.8%
inhibition at 10 µM (Erk1; [2]): 0%
inhibition at 10 µM (Erk1; read-out: inhibition (10 μM)): 29%
inhibition at 10 µM (FER; [2]): 0%
inhibition at 10 µM (FER; read-out: inhibition (10 μM)): 16.3%
inhibition at 10 µM (HPK1; [2]): > 90%
inhibition at 10 µM (HPK1; read-out: inhibition (10 μM)): 90.4%
% inhibition (IKKe, TBK1): 0.0%
inhibition (10 μM) (IKKe, TBK1): 33.9%
inhibition at 10 µM (IRAK1; [2]): 50 to 75%
inhibition at 10 µM (IRAK1; read-out: inhibition (10 μM)): 51.2%
inhibition at 10 µM (MAP2K1; [2]): 0%
inhibition at 10 µM (MAP2K1; read-out: inhibition (10 μM)): 17.8%
% inhibition (MAP2K1, MAP2K2): 0.0%
inhibition at 10 µM (MAP2K6; [2]): 0%
inhibition at 10 µM (MAP2K6; read-out: inhibition (10 μM)): 10.9%
inhibition at 10 µM (MAP3K2; [2]): 0%
inhibition at 10 µM (MAP3K2; read-out: inhibition (10 μM)): -39.1%
% inhibition (MARK1, MARK2): 0.0%
inhibition (10 μM) (MARK1, MARK2): −29.5%
inhibition at 10 µM (MARK2; [2]): 0%
inhibition at 10 µM (MARK2; read-out: inhibition (10 μM)): -8.6%
inhibition at 10 µM (MARK4; [2]): 0%
inhibition at 10 µM (MARK4; read-out: inhibition (10 μM)): 6.8%
inhibition at 10 µM (MASTL; [2]): 0%
inhibition at 10 µM (MASTL; read-out: inhibition (10 μM)): -1.4%
% inhibition (MST4): 0.0%
inhibition (10 μM) (MST4): −68.1%
inhibition at 10 µM (NDR1; [2]): 0%
inhibition at 10 µM (NDR1; read-out: inhibition (10 μM)): 20.2%
inhibition at 10 µM (NEK3; [2]): 0%
inhibition at 10 µM (NEK3; read-out: inhibition (10 μM)): -9.9%
inhibition at 10 µM (NuaK2; [2]): 35 to 40%
inhibition at 10 µM (NuaK2; read-out: inhibition (10 μM)): 40.8%
inhibition at 10 µM (PAN3; [2]): 0%
inhibition at 10 µM (PAN3; read-out: inhibition (10 μM)): 14.3%
inhibition at 10 µM (PEK; [2]): 0%
inhibition at 10 µM (PEK; read-out: inhibition (10 μM)): 7.9%
inhibition at 10 µM (PHKg2; [2]): 0%
inhibition at 10 µM (PHKg2; read-out: inhibition (10 μM)): -38.6%
inhibition at 10 µM (PI4KB; [2]): 0%
inhibition at 10 µM (PI4KB; read-out: inhibition (10 μM)): 0%
inhibition at 10 µM (PIP4K2A; [2]): 0%
inhibition at 10 µM (PIP4K2A; read-out: inhibition (10 μM)): -5.5%
% inhibition (PITSLRE): 0.0%
inhibition (10 μM) (PITSLRE): −27.6%
inhibition at 10 µM (PKD3; [2]): 50 to 75%
inhibition at 10 µM (PKD3; read-out: inhibition (10 μM)): 69.7%
inhibition at 10 µM (RSKL1; [2]): 0%
inhibition at 10 µM (RSKL1; read-out: inhibition (10 μM)): 3.2%
inhibition at 10 µM (SRPK2; [2]): 0%
inhibition at 10 µM (SRPK2; read-out: inhibition (10 μM)): 1.8%
inhibition at 10 µM (TLK1; [2]): 0%
inhibition at 10 µM (TLK1; read-out: inhibition (10 μM)): -7.5%
inhibition at 10 µM (ZAK; [2]): 0%
inhibition at 10 µM (ZAK; read-out: inhibition (10 μM)): 6.6%
inhibition at 10 µM (eEF2K; [2]): 0%
inhibition at 10 µM (eEF2K; read-out: inhibition (10 μM)): -1%

Nc1ncc(-c2ccc(NS(=O)(=O)C3CC3)cc2F)cc1-c1ccc2c(c1)CCNC2=O [Compound I-51, N-(4-(6-amino-5-(1-oxo-1,2,3,4-tetrahydroisoquinolin-6-yl)pyridin-3-yl)-3-fluorophenyl) cyclopropanesulfonamide]
% inhibition (AurA, AurB, AurC): 50-75%
inhibition (10 μM) (AurA, AurB, AurC): 53.2%
inhibition at 10 µM (BRAF; [2]): 0%
inhibition at 10 µM (BRAF; read-out: inhibition (10 μM)): -41.8%
% inhibition (CDK11, CDK8): 0.0%
inhibition (10 μM) (CDK11, CDK8): 31.8%
inhibition at 10 µM (CHK1; [2]): 0%
inhibition at 10 µM (CHK1; read-out: inhibition (10 μM)): -20.1%
% inhibition [1]: 0.0%
inhibition (10 μM) [1]: 19.2%
inhibition at 10 µM (Erk1; [2]): 0%
inhibition at 10 µM (Erk1; read-out: inhibition (10 μM)): 29.2%
inhibition at 10 µM (FER; [2]): 0%
inhibition at 10 µM (FER; read-out: inhibition (10 μM)): 13.4%
inhibition at 10 µM (HPK1; [2]): 75 to 90%
inhibition at 10 µM (HPK1; read-out: inhibition (10 μM)): 83.5%
% inhibition (IKKe, TBK1): 0.0%
inhibition (10 μM) (IKKe, TBK1): 26.7%
inhibition at 10 µM (IRAK1; [2]): 50 to 75%
inhibition at 10 µM (IRAK1; read-out: inhibition (10 μM)): 65%
inhibition at 10 µM (MAP2K1; [2]): 0%
inhibition at 10 µM (MAP2K1; read-out: inhibition (10 μM)): -26.2%
% inhibition (MAP2K1, MAP2K2): 0.0%
inhibition at 10 µM (MAP2K6; [2]): 0%
inhibition at 10 µM (MAP2K6; read-out: inhibition (10 μM)): -3.5%
inhibition at 10 µM (MAP3K2; [2]): 0%
inhibition at 10 µM (MAP3K2; read-out: inhibition (10 μM)): -11.2%
% inhibition (MARK1, MARK2): 0.0%
inhibition (10 μM) (MARK1, MARK2): 9.3%
inhibition at 10 µM (MARK2; [2]): 0%
inhibition at 10 µM (MARK2; read-out: inhibition (10 μM)): 24.6%
inhibition at 10 µM (MARK4; [2]): 0%
inhibition at 10 µM (MARK4; read-out: inhibition (10 μM)): 22.2%
inhibition at 10 µM (MASTL; [2]): 0%
inhibition at 10 µM (MASTL; read-out: inhibition (10 μM)): 14.6%
% inhibition (MST4): 0.0%
inhibition (10 μM) (MST4): 33.9%
inhibition at 10 µM (NDR1; [2]): 0%
inhibition at 10 µM (NDR1; read-out: inhibition (10 μM)): 16.8%
inhibition at 10 µM (NEK3; [2]): 0%
inhibition at 10 µM (NEK3; read-out: inhibition (10 μM)): -13%
inhibition at 10 µM (NuaK2; [2]): 35 to 40%
inhibition at 10 µM (NuaK2; read-out: inhibition (10 μM)): 45.1%
inhibition at 10 µM (PAN3; [2]): 0%
inhibition at 10 µM (PAN3; read-out: inhibition (10 μM)): -39.1%
inhibition at 10 µM (PEK; [2]): 0%
inhibition at 10 µM (PEK; read-out: inhibition (10 μM)): -16.3%
inhibition at 10 µM (PHKg2; [2]): 0%
inhibition at 10 µM (PHKg2; read-out: inhibition (10 μM)): -45.4%
inhibition at 10 µM (PI4KB; [2]): 0%
inhibition at 10 µM (PI4KB; read-out: inhibition (10 μM)): 13%
inhibition at 10 µM (PIP4K2A; [2]): 0%
inhibition at 10 µM (PIP4K2A; read-out: inhibition (10 μM)): -16.5%
% inhibition (PITSLRE): 0.0%
inhibition (10 μM) (PITSLRE): −20.2%
inhibition at 10 µM (PKD3; [2]): 50 to 75%
inhibition at 10 µM (PKD3; read-out: inhibition (10 μM)): 74.8%
inhibition at 10 µM (RSKL1; [2]): 0%
inhibition at 10 µM (RSKL1; read-out: inhibition (10 μM)): -22.1%
inhibition at 10 µM (SRPK2; [2]): 0%
inhibition at 10 µM (SRPK2; read-out: inhibition (10 μM)): -41%
inhibition at 10 µM (TLK1; [2]): 0%
inhibition at 10 µM (TLK1; read-out: inhibition (10 μM)): -11.8%
inhibition at 10 µM (ZAK; [2]): 50 to 75%
inhibition at 10 µM (ZAK; read-out: inhibition (10 μM)): 58.3%
inhibition at 10 µM (eEF2K; [2]): 0%
inhibition at 10 µM (eEF2K; read-out: inhibition (10 μM)): 7.7%
